Test results taken from EP1724268A1, “COMPOUND HAVING TGF-BETA INHIBITORY ACTIVITY AND PHARMACEUTICAL COMPOSITION CONTAINING SAME” (KIRIN BEER KABUSHIKI KAISHA, priority 2004, dated 2005).

System: TGFβ signal
Assay: TGFβ signal inhibitory activity, (SBE)4-Luc reporter in A549 cells (Test Examples 1A and 1B)
Format: cell-based, human
Details: Homo sapiens, A549, compounds of Reference Examples (Test Example 1B), read-out: TGFβ inhibition rate, %
Method in brief: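 Stable A549 line carrying (SBE)4-Luc Smad3-binding reporter treated with compound plus TGFβ-1 (2 ng/ml) for 4 hr; luciferase read by chemiluminescence. Percent inhibition relative to TGFβ-only and untreated cells, tested at 3 µM and 10 µM, some also at 1 µM.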

| SMILES | inhibition at 3 µM | inhibition at 10 µM |
| --- | --- | --- |
| COc1cc2nccc(Oc3cc4ccccc4nc3C(C)=O)c2cc1OC [Compound r278, 1-[3-(6,7-Dimethoxy-quinolin-4-yloxy)-quinolin-2-yl]-ethanone] | 90% | 99% |
| COc1cc2nccc(Oc3cc4ccccc4nc3Br)c2cc1OC [Compound r281, 4-(2-Bromo-quinolin-3-yloxy)-6,7-dimethoxy-quinoline] | 88% | 100% |
| COc1cc2nccc(Oc3cc4ccccc4nc3-c3ccccc3)c2cc1OC [Compound r283, 6,7-Dimethoxy-4-(2-phenyl-quinolin-3-yloxy)-quinoline] | 99% | 100% |
| COc1cc2nccc(Oc3cc4ccccc4nc3-c3cccc(CO)c3)c2cc1OC [Compound r284, {3-[3-(6,7-Dimethoxy-quinolin-4-yloxy)-quinolin-2-yl]-phenyl}-methanol] | 96% | 100% |
| COc1cc2nccc(Oc3cc4ccccc4nc3-c3cccnc3)c2cc1OC [Compound r288] | 94% | 100% |
| COc1cc2nccc(Oc3ccc4ncsc4c3-c3ccccc3)c2cc1OC [Compound r295] | 47% | 96% |
| COc1cc2nccc(Oc3cc4cccnc4cc3OC)c2cc1OC [Compound r297, 6,7-Dimethoxy-4-(7-methoxy-quinolin-6-yloxy)-quinoline] | 61% | 94% |
| COc1cc2nccc(Oc3cc4cccnc4cc3-c3ccccc3)c2cc1OC [Compound r299, 6,7-Dimethoxy-4-(7-phenyl-quinolin-6-yloxy)-quinoline] | 99% | 100% |
| COc1cc2nccc(Oc3cc4ccncc4cc3C)c2cc1OC [Compound r300, 6,7-Dimethoxy-4-(7-methyl-isoquinolin-6-yloxy)-quinoline] | 9% | 63% |
| COc1cc2nccc(Oc3cc4ccncc4cc3Br)c2cc1OC [Compound r301, 4-(7-Bromo-isoquinolin-6-yloxy)-6,7-dimethoxy-quinoline] | 20% | 75% |
| COc1cc2nccc(Oc3cc4ccncc4cc3-c3ccccn3)c2cc1OC [Compound r303, 6,7-Dimethoxy-4-(7-pyridin-2-yl-isoquinolin-6-yloxy)-quinoline] | 96% | – |
| COc1cc2nccc(Oc3cc4cncnc4cc3C)c2cc1OC [Compound r305, 6-(6,7-Dimethoxy-quinolin-4-yloxy)-7-methyl-quinazoline] | 28% | 64% |
| COc1cc2nccc(Oc3ccnc4ccsc34)c2cc1OC [Compound r307] | 26% | 69% |
| COc1cc2nccc(Oc3cc(C)nc4ccc(F)cc34)c2cc1OC [Compound r308] | 21% | 56% |
| COc1cc2nccc(Oc3cc(C)nc4ccccc34)c2cc1OC [Compound r309] | 41% | 79% |
| COc1cc2nccc(Oc3cc4cccnc4nc3C)c2cc1OC [Compound r310] | 72% | 97% |
| COc1cc2c(Oc3cc(C)c(C)cc3C(C)=O)ccnc2cc1OCc1ccccc1 [Compound r313] | 56% | 94% |
| COc1cc2c(Oc3cc(C)c(C)cc3C(C)=O)ccnc2cc1O [Compound r314] | 50% | 89% |
| COc1cc2c(Oc3cc(C)c(C)cc3C(C)=O)ccnc2cc1OCCCl [Compound r315] | 98% | 100% |
| COc1cc2c(Oc3cc(C)c(C)cc3C(C)=O)ccnc2cc1OCCN1CCOCC1 [Compound r316] | 99% | 100% |
| COc1cc2c(Oc3cc(C)c(C)cc3C(C)=O)ccnc2cc1OCCn1ccnc1 [Compound r317] | 100% | 100% |

| SMILES | inhibition at 3 µM | inhibition at 10 µM |
| --- | --- | --- |
| COc1cc2c(Oc3cc(C)c(C)cc3C(C)=O)ccnc2cc1OCCCCl [Compound r318] | 82% | 100% |
| COc1cc2c(Oc3cc(C)c(C)cc3C(C)=O)ccnc2cc1OCCCn1ccnc1 [Compound r321] | 100% | 100% |
| CCCOC(=O)c1cc2ccccc2cc1Oc1ccnc2cc(OCCCl)c(OC)cc12 [Compound r322] | 50% | 88% |
| CCCOC(=O)c1cc2ccccc2cc1Oc1ccnc2cc(OCCN3CCOCC3)c(OC)cc12 [Compound r323] | 89% | 100% |
| CCCOC(=O)c1cc2ccccc2cc1Oc1ccnc2cc(OCCn3ccnc3)c(OC)cc12 [Compound r324] | 86% | 100% |
| CCCOC(=O)c1cc2ccccc2cc1Oc1ccnc2cc(OCCCCl)c(OC)cc12 [Compound r325] | 19% | 60% |
| CCCOC(=O)c1cc2ccccc2cc1Oc1ccnc2cc(OCCCN3CCOCC3)c(OC)cc12 [Compound r326] | 83% | 100% |
| CCCOC(=O)c1cc2ccccc2cc1Oc1ccnc2cc(OCCCn3ccnc3)c(OC)cc12 [Compound r327] | 89% | 100% |
| COc1cc2c(Oc3ccc(C)nc3-c3nccs3)ccnc2cc1OCc1ccccc1 [Compound r328] | 100% | 100% |
| COc1cc2c(Oc3ccc(C)nc3-c3nccs3)ccnc2cc1O [Compound r329] | 100% | 100% |
| COc1cc2c(Oc3ccc(C)nc3-c3nccs3)ccnc2cc1OCC(CO)CO [Compound r330] | 100% | 100% |
| COc1cc2c(Oc3cc(C)c(C)nc3-c3ccccc3)ccnc2cc1OCc1ccccc1 [Compound r331] | 73% | 90% |
| COc1cc2c(Oc3cc(C)c(C)nc3-c3ccccc3)ccnc2cc1O [Compound r332] | 97% | 100% |
| COc1cc2c(Oc3cc(C)c(C)nc3-c3ccccc3)ccnc2cc1OCCO [Compound r333] | 100% | – |
| COc1cc2c(Oc3cc(C)c(C)nc3-c3ccccc3)ccnc2cc1OCC1CO1 (stereo not drawn) [Compound r334] | 99% | – |
| COc1cc2c(Oc3cc(C)c(C)nc3-c3ccccc3)ccnc2cc1OCC(O)CO (stereo not drawn) [Compound r335] | 100% | – |
| COc1cc2c(Oc3cc(C)c(C)nc3-c3ccccc3)ccnc2cc1OCC(CO)CO [Compound r336] | 100% | – |
| COc1cc2c(Oc3cc(C)c(C)nc3-c3ccccn3)ccnc2cc1OCc1ccccc1 [Compound r337] | 98% | – |
| COc1cc2c(Oc3cc(C)c(C)nc3-c3ccccn3)ccnc2cc1O [Compound r338] | 92% | 100% |
| COc1cc2c(Oc3cc(C)c(C)nc3-c3ccccn3)ccnc2cc1OCCO [Compound r339] | 100% | – |
| COc1cc2c(Oc3cc(C)c(C)nc3-c3ccccn3)ccnc2cc1OCCCO [Compound r340] | 99% | – |

| SMILES | inhibition at 3 µM | inhibition at 10 µM |
| --- | --- | --- |
| COc1cc2c(Oc3cc(C)c(C)nc3-c3ccccn3)ccnc2cc1OCC1CO1 (stereo not drawn) [Compound r341] | 99% | – |
| COc1cc2c(Oc3cc(C)c(C)nc3-c3ccccn3)ccnc2cc1OCC(O)CO (stereo not drawn) [Compound r342] | 89% | – |
| COc1cc2c(Oc3cc(C)c(C)nc3-c3ccccn3)ccnc2cc1OCC(CO)CO [Compound r343] | 93% | – |
| COc1cc2c(Oc3cc(C)c(C)nc3-c3cccnc3)ccnc2cc1OCc1ccccc1 [Compound r344] | 92% | – |
| COc1cc2c(Oc3cc(C)c(C)nc3-c3cccnc3)ccnc2cc1O [Compound r345] | 61% | 93% |
| COc1cc2c(Oc3cc(C)c(C)nc3-c3cccnc3)ccnc2cc1OCCO [Compound r346] | 99% | – |
| COc1cc2c(Oc3cc(C)c(C)nc3-c3cccnc3)ccnc2cc1OCCCO [Compound r347] | 100% | – |
| COc1cc2c(Oc3cc(C)c(C)nc3-c3cccnc3)ccnc2cc1OCC1CO1 (stereo not drawn) [Compound r348] | 76% | – |
| COc1cc2c(Oc3cc(C)c(C)nc3-c3cccnc3)ccnc2cc1OCC(O)CO (stereo not drawn) [Compound r349] | 96% | – |
| COc1cc2c(Oc3cc(C)c(C)nc3-c3cccnc3)ccnc2cc1OCC(CO)CO [Compound r350] | 96% | – |
| COc1cc2c(Oc3cc4ccccc4nc3C)ccnc2cc1OCc1ccccc1 [Compound r351, 7-Benzyloxy-6-methoxy-4-(2-methyl-quinolin-3-yloxy)-quinoline] | 42% | 90% |
| COc1cc2c(Oc3cc4ccccc4nc3C)ccnc2cc1O [Compound r352, 6-Methoxy-4-(2-methyl-quinolin-3-yloxy)-quinolin-7-ol] | 14% | 68% |
| COc1cc2c(Oc3cc4ccccc4nc3C)ccnc2cc1OCCCl [Compound r353] | 54% | 86% |
| COc1cc2c(Oc3cc4ccccc4nc3C)ccnc2cc1OCCN [Compound r354] | 100% | 100% |
| COc1cc2c(Oc3cc4ccccc4nc3C)ccnc2cc1OCCN(C)C [Compound r355] | 100% | 100% |
| COc1cc2c(Oc3cc4ccccc4nc3C)ccnc2cc1OCCNC(=N)N [Compound r356] | -2% | 54% |
| COc1cc2c(Oc3cc4ccccc4nc3C)ccnc2cc1OCCNC(=O)CC(C)(C)CC(=O)O [Compound r357] | 27% | 60% |
| COc1cc2c(Oc3cc4ccccc4nc3C)ccnc2cc1OCCN1CCCCC1 [Compound r358] | 100% | 100% |
| COc1cc2c(Oc3cc4ccccc4nc3C)ccnc2cc1OCCN1CCCC(CO)C1 (stereo not drawn) [Compound r359] | 100% | 100% |
